{"source": "paper PMC6987128", "about": "“Target protein-oriented isolation of Hes1 dimer inhibitors using protein based methods” (Scientific Reports, 2020)", "test_system": "C17.2 mouse neural stem cells", "assay": "Neural stem cell differentiation assay (Tuj1/GFAP immunofluorescence staining)", "format": "cell-based", "details": "C17.2 cells, 6 days; for increase of neurons compared to control: vs DMSO control", "source_text": "We recently developed another protein-based screening method, the target protein oriented natural products isolation method (TPO-NAPI) using protein beads (Fig. 2B). Agalloside, inohanamine, α-mangostine, BE-14106, isomicromonolactam, staurosporin and linarin were isolated as Hes1 binding compounds using the TPO-NAPI method[15],[17]. Rat Hes1 (1–95) containing basic and helix-loop-helix domains was immobilized because the helix-loop-helix domain is known to be important for Hes1-Hes1 interaction; therefore, utilizing this domain in the beads method would likely be effective for screening Hes1 dimer inhibitors. GST-Hes1 immobilized beads were prepared by mixing freshly prepared GST-Hes1 protein with glutathione Sepharose 4B beads. GST-only beads were prepared as a control. After incubating the beads with plant MeOH extracts at 4 °C for 2 h, bound compounds were eluted by adding EtOH and heating at 100 °C for 3 min, then the eluted compounds were analyzed by HPLC. […] The MeOH extract (64.6 g) of Terminalia chebula bark was partitioned with hexane, EtOAc and BuOH to obtain hexane (1.5 g), EtOAc (3.6 g), BuOH (42.6 g), and aqueous (20.5 g) soluble fractions. The EtOAc fraction contained the target peak and was subjected to silica gel column chromatography to give eight fractions (1A-H). Fraction 1D contained the target peak and was separated by ODS column chromatography and reverse-phase HPLC to give compound 11 (0.4 mg). Compound 11 was identified as 4-O-(4″-O-galloyl-α-L-rhamnopyranosyl)ellagic acid by comparison of its NMR data with reported spectral data[37]. […] This is the strongest Hes1 dimer inhibitor reported to date. The ability of 11 to accelerate the differentiation of C17.2 mouse neural stem cells was evaluated (Fig. 5). C17.2 cells (2 × 10^5 cells/mL) were seeded in a poly-L-lysine-coated 24 well plates and incubated for 24 h, then the cells were treated with DMSO (control), 100 μM valproic acid (VPA), 5 μM retinoic acid (RA) (positive controls) or 11 (1 or 5 μM) for 6 days. A confocal microscope was used to obtain images of differentiated neural cells after immunostaining class III β-tubulin (Tuj1) in neurons, and glial fibrillary acidic protein (GFAP) in astrocytes and nuclei (TO-PRO-3). […] In contrast, the control dish containing cells treated with DMSO contained small number of neurons.\nC17.2 cells were cultured in proliferation medium [DMEM (DS Pharma Biomedical Co., Ltd. Osaka, Japan) supplemented with 10% fetal bovine serum (Biowest, Nuaillé, France), 5% horse serum (Gibco, Life Technologies, Tokyo, Japan)]. Neural differentiation of C17.2 cells was initiated by transferring the cells to differentiation medium [Neurobasal Medium (Gibco) supplemented with 2% B-27 without vitamin A (Gibco), 1% antibiotic-antimycotic (Gibco)]. All cultures were maintained in a humidified incubator at 37 °C in 5% CO2/95% air.\nC17.2 cells were dissociated using the proliferation medium 2 × 10^5 cells/mL on cover glass (MATSUNAMI GLASS) coated with poly-L-lysine and fibronectin/laminin. After incubation for 24 h, cells were washed with D-MEM and treated with individual compounds in differentiation medium for 6 days.\nC17.2 cells were fixed with 4% paraformaldehyde in PBS for 20 min at room temperature (r.t.) and washed with 1% BSA in PBS three times. After blocking with 10% BSA in 0.3% Triton X-100 in PBS for 45 min at r.t., fixed cells were incubated with primary antibodies (anti-βIII-Tubulin; Neuronal Class III, Mouse-Mono, 1:400, R&D Systems^TM; anti-GFAP, 1:400, VERITAS) for 12 h at 4 °C. After washing three times with 1% BSA in PBS (500 μL/well), cells were incubated with secondary antibodies (Alexa Fluor® 488 goat anti-mouse IgG (H + L), 1:400, Life Technologies; Alexa Fluor® 555 goat ant-rabbit IgG (H + L), 1:200, Life Technologies) for 1 hr at r.t. in the dark. […]"}
{"smiles": "CC1OC(Oc2cc3c(=O)oc4c(O)c(O)cc5c(=O)oc(c2O)c3c45)C(O)C(O)C1OC(=O)c1cc(O)c(O)c(O)c1", "note": "[Compound 11, 4-O-(4″-O-galloyl-α-L-rhamnopyranosyl)ellagic acid]", "values": [{"measurement": "differentiated neurons", "setting": "1 µM", "value": 33.6, "unit": "%"}, {"measurement": "increase of neurons compared to control", "setting": "1 µM", "value": 67, "unit": "%"}, {"measurement": "differentiated neurons", "setting": "5 µM", "value": 45.4, "unit": "%"}, {"measurement": "increase of neurons compared to control", "setting": "5 µM", "value": 125, "unit": "%"}]}
